Here are results for one compound from US12502374B2, “Composition for preventing, alleviating, or treating inflammatory disease containing isookanin or salt thereof as active ingredient” (BioSpectrum, Inc., priority 2020, dated 2025).

The target in series [1] is T1, TLR-2 (Homo sapiens, UniProt O60603).
T1 construct: host or cells: HEK-Blue TLR2 cell line
The series can be described thus: Chitin-induced TLR-2 activation, HEK-Blue TLR2 SEAP reporter cells. The class given is cell-based. To be noted: 1 hour pretreatment, then chitin for 12 hours; FIG. 3. On the procedure: The anti-inflammatory effect of isookanin by inhibition of TLR-2 activation was measured. The HEK-Blue™ TLR2 cell line (InvivoGen, USA) co-transfected with TLR-2 and SEAP (secreted embryonic alkaline phosphatase) reporter genes was used. The SEAP reporter gene contains transcription factors NF-kB and AP-1 binding sites, and thus when NF-kB and AP-1 are activated by TLR-2 activation, SEAP is produced and secreted extracellularly. Specifically, the HEK-Blue™ TLR2 cell line was cultured in DMEM containing 10% FBS, and then seeded in a 48-well plate at a density of 1×10^5 cells per well, and pretreated with isookanin for 1 hour. Next, the cells were treated with chitin (Carbosynth, USA) and cultured again for 12 hours. Here, chitin is a component of demodex and is known as a major trigger of inflammatory rosacea. […] 20 μl of the culture supernatant of the cells cultured for 12 hours was taken, mixed with 80 μl of QUANTI-Blue™ (InvivoGen, USA), and then incubated at 37° C. for 1 hour. The degree of TLR-2 activation was measured by comparing the degree of color development caused by the reaction between Quanti-Blue and extracellularly secreted SEAP, and the results are shown in FIG. 3.

Series [2] concerns the target T2, COX-2 (Homo sapiens, UniProt P35354).
T2 construct: BioVision
T2 sequence (P35354 18-604): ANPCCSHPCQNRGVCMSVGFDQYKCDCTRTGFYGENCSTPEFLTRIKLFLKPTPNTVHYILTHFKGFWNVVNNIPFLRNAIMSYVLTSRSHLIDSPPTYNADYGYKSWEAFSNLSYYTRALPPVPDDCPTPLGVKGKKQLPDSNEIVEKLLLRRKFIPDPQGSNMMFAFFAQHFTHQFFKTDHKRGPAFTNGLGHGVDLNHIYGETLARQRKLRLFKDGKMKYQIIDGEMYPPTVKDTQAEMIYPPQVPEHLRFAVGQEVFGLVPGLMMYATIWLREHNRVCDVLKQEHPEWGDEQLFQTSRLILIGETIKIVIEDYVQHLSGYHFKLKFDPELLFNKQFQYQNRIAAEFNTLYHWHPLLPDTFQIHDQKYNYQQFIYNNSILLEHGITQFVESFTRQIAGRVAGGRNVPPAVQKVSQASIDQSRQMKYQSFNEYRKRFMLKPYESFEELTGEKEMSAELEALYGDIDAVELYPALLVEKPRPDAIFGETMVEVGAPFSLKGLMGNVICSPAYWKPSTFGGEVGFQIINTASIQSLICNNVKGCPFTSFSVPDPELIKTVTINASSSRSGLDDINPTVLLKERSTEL
The series can be described thus: COX-2 enzyme activity, cyclooxygenase (COX) activity assay kit. Format: biochemical. To be noted: 5, 10 and 20 ppm; FIG. 5. On the procedure: COX-2 enzyme inhibitory activity was measured using a cyclooxygenase (COX) activity assay kit (BioVision). 2 μl of COX probe, 4 μl of diluted COX cofactor, and varying concentrations (5, 10, and 20 ppm) of isookanin were added to the COX assay buffer included in the kit. As a negative control, DMSO was added instead of isookanin, and as a positive control, the COX-2 inhibitor celecoxib was added.

Series [3] concerns HMEC-1. The series can be described thus: PGE2-induced vascular endothelial cell proliferation (MTT assay). Format: cell-based, human. The note with it: 1 hour pretreatment; 20 μM PGE2, 48 hours; FIG. 8. On the procedure:
Human microvascular […] cells (HMEC-1, ATCC, USA) were cultured in MCDB131 medium (Thermo Fisher, USA) containing 10 ng/ml EGF, 1 μg/mL cortisol, 10 mM glutamine and 10% FBS, and then seeded in a 24-well plate at a density of 5×10^4 cells per well and cultured in an incubator for 24 hours at cultured at 37° C. under 5% CO2. After culturing, each well was pretreated with each concentration of isookanin for 1 hour, and then treated with 20 μM PGE2 and cultured again for 48 hours. After 48 hours of culturing, the degree of vascular cell proliferation was measured using MTT assay, and the results are shown in FIG. 8.

The test system of series [4] is HMEC-1. The series can be described thus: PGE2-induced vascular endothelial cell migration (scratch assay). The class given is cell-based, human. The note with it: 2 hours pretreatment; 20 μM PGE2, 24 hours; FIG. 9. On the procedure:
Human vascular endothelial cells (HMEC-1) were seeded in a 12-well plate at a density of 2×10^5 cells per well and cultured in an incubator for 24 hours at 37° C. under 5% CO2. After the cells in each well were grown to 80% confluency, the central part of each well was scratched using a yellow pipette tip. Next, each well was pretreated with each concentration of isookanin for 2 hours and then treated with 20 μM PGE2 and incubated for 24 hours. As a negative control, 100 ng/ml of VEGF was used. After 24 hours of incubation, the degree of vascular cell migration was observed using a microscope, and the results were photographed with a microscope camera and shown in FIG. 9.

Series [5] concerns human skin. The series can be described thus: Human skin safety, repeated insult patch test (Finn chamber). The note with it: 30 healthy adults. Format: in vivo. On the procedure: In order to confirm that the isookanin according to the present invention is safe for human skin, a skin safety verification test was performed. To this end, a repeated insult patch test was conducted.
Nourishing creams containing the isookanin in amounts of 0.1%, 0.5% and 1%, respectively, were prepared. Specifically, a water phase containing purified water, triethanolamine and propylene glycol was dissolved by heating to 70° C. and then emulsified by adding a solution obtained by dissolving beeswax, liquid paraffin, an oil component, an emulsifier and a preservative by heating to 70° C. After completion of emulsification, the solution was cooled to 45° C., and the isookanin was added thereto in amounts of 0.1%, 0.5% and 1% and dispersed therein, followed by cooling to 30° C. As the content of the isookanin was increased from 0.1% to 0.5% and 1%, the content of liquid paraffin was decreased from 9.91% to 9.51% and 9.01%, respectively, thereby preparing nourishing creams.
Using the nourishing creams prepared as described above, a repeated insult patch test was conducted on the upper arm areas of 30 healthy adults every other day for a total of 9 times for 24 hours per time to determine whether the isookanin irritated the skin.
The patch test was performed using a Finn chamber (Epitest Ltd., Finland). 15 μl of each of the external skin preparations was dropped into the chamber, and then the patch test was performed.
[Equation 1] Average degree of reaction=[[(reaction index×degree of reaction)/(total number of subjects×highest score (4)]×100]÷number of tests (9)
In the degree of reaction, ± represents a score of 1, + represents a score of 2, and ++ represents a score of 4. When the average degree of reaction is less than 3, the corresponding composition is determined to be safe.

T1 sequence (O60603 21-784): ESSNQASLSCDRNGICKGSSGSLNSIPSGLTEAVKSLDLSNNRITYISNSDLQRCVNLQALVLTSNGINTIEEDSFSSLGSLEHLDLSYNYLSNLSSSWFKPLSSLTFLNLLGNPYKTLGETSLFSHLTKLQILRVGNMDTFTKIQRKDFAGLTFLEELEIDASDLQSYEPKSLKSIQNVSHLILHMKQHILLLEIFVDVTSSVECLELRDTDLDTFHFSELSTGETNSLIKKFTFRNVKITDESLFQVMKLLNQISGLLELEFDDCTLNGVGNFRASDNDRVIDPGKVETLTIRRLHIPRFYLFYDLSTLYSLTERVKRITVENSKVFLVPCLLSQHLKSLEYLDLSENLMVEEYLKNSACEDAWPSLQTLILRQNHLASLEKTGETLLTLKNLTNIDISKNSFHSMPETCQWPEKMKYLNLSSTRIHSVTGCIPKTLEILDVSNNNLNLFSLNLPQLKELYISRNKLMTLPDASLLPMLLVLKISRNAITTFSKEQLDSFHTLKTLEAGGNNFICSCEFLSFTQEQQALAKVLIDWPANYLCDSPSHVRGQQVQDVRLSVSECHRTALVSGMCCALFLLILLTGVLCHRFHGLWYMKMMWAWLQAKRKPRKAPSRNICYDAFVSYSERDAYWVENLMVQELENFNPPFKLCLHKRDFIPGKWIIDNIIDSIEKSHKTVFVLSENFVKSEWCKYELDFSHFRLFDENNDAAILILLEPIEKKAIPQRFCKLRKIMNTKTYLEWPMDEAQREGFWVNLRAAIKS

`O=C1C[C@@H](c2ccc(O)c(O)c2)Oc2c1ccc(O)c2O` [isookanin]: the “inhibition of chitin-induced activation of TLR-2 signaling” value in series [1] was “effectively inhibiting the chitin-induced activation of TLR-2 signaling”. In series [2], the “inhibition of COX-2 enzyme activity” value is “inhibiting the activity of COX-2 enzyme in a concentration-dependent manner”. For the same compound, in series [3], the “inhibition of human vascular endothelial cell proliferation induced by PGE2” value is reported as “effectively inhibiting human vascular endothelial cell proliferation induced by PGE2”. In series [4], the “inhibition of human vascular endothelial cell migration induced by PGE2” value is “effectively inhibiting human vascular endothelial cell migration induced by PGE2”. In addition, the “Average degree of reaction” value in series [5] (upper arm, 24 hours per patch, Equation 1, less than 3 is determined to be safe) is at most 3. The “skin safety conclusion of the repeated insult patch test” value in series [5] (nourishing creams with 0.1%, 0.5% and 1% isookanin) is reported as “safe substance that shows no remarkable cumulative irritation aspect”.
